This passage reports Emax and Ki results from patent EP4703359A1 (Shanghai Simr Biotechnology Co., Ltd., priority 2023, dated 2024).

Test [1] has as its target T1, α2-GABAA receptor (Homo sapiens, UniProt P18507+P47869).
T1 construct: expressed in transfected cells
Briefly: Whole-cell patch-clamp electrophysiology, positive allosteric modulatory activity in α2-GABAAR-HEK293 cells. In kind it is cell-based. The note with it: compound 100 nM; GABA 0.10 to 0.11 µM (approximately EC7-8); normalized to reference compound CVL-865 (= 100%); read-out: α2-GABAAR Positive allosteric modulatory activity. In a few lines:
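HEK293 cells stably co-expressing α2β3γ2 GABAA receptor, whole-cell patch clamp at -60 mV. Compounds at 100 nM final applied with GABA 0.10–0.11 µM (~EC7-8) after GABA-only current stabilized. […]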

For test [2], the target named is T1, α2-GABAA receptor. Briefly: Radioactive ligand (3H-flunitrazepam) competitive binding assay, BZD site of membrane proteins of α2-GABAAR-HEK293 cells. The note with it: competition with 1 nM 3H-flunitrazepam; HEK293 membranes expressing α2, β3, γ2 subunits; Ki calculated from IC50; read-out: α2 Ki.

Structures are written as SMILES.

`CCCNC(=O)c1nc2c(Oc3cc(F)ccc3OC)cccn2c1N` [Example 144, 3-Amino-8-(5-fluoro-2-methoxyphenoxy)-N-propylimidazo[1,2-a]pyridine-2-carboxamide]: the Emax at 0.1 µM at α2-GABAA receptor [1] was determined as 95%. Besides, the inhibitory constant (Ki) on α2-GABAA receptor [2] is 4.97 nM.

As for `CCCNC(=O)c1nc2c(-c3c(F)cccc3OC)c(C#N)ccn2c1N` [Example 148, 3-Amino-7-cyano-8-(2-fluoro-6-methoxyphenyl)-N-propylimidazo[1,2-a]pyridine-2-carboxamide], on α2-GABAA receptor [1], the Emax at 0.1 µM worked out at 107%. In addition, the Ki on α2-GABAA receptor [2] was 4.46 nM.

As for `CCCNC(=O)c1nc2c(N3CCOCC3C)cccn2c1N` (centres unmarked) [Example 149, 3-Amino-8-(3-methylmorpholino)-N-propylimidazo[1,2-a]pyridine-2-carboxamide], on α2-GABAA receptor [1], the Emax at 0.1 µM is 44%. Also, the Ki at α2-GABAA receptor [2] was 90 nM.

Consider `CCCNC(=O)c1nc2c(OCc3c(F)cccc3OC)cccn2c1N` [Example 151, 3-Amino-8-((2-fluoro-6-methoxybenzyl)oxy)-N-propylimidazo[1,2-a]pyridine-2-carboxamide], for which the Emax at 0.1 µM on α2-GABAA receptor [1] worked out at 35%. For the same compound, the Ki at α2-GABAA receptor [2] was 87 nM.
